Values quoted from earlier work, collected in patent US20250295648A1 (priority 2024, published 2025).

Tested on: Parkinson's patients with troublesome L-DOPA-induced dyskinesia
Conditions: cited from earlier work

Fc1ccc(-c2cncc(CNC[C@H]3CCc4ccccc4O3)c2)cc1 [sarizotan]
effect on L-DOPA efficacy (phase 2b study, Goetz 2007): two of the three tested doses significantly reduced L-DOPA efficacy | reduction of LID (third (lowest) dose, two phase 3 trials): ineffective in reducing LID
